The values that follow come from patent US9120795B2, “Crystalline form of a β-lactamase inhibitor” (Cubist Pharmaceuticals, Inc., priority 2013, dated 2015).

Molecules are shown by their SMILES.

The subject of assay [1] is Eco isogenic, β-Lactamase none. Description: Synergy MIC (sMIC) assay. It counts as cell-based, E. coli. The settings on record: β-Lactam none. As for the experimental part: (§1) The synergy MIC (sMIC) assay determines the concentration of the BLI required to potentiate the activity of a fixed concentration of a β-lactam antibiotic against β-lactamase producing bacterial strains. The experimental protocol was performed according to Clinical and Laboratory Standards Institute (CLSI) guidelines with modifications as described below (CLSI guidelines can be derived from the CLSI document M07-A9 published in January 2012: “Methods for Dilution Antimicrobial Susceptibility Tests for Bacteria That Grow Aerobically; Approved Standard-Ninth Edition”). […]
(§2) Plates were incubated for 18-20 hours at 37° C. with aeration (200 rpm). Following incubation, growth was confirmed visually placing plates over a viewing apparatus (stand with a mirror underneath) and then OD600 was measured using a SpectraMax 340PC384 plate reader (Molecular Devices, Sunnyvale, Calif.). Growth was defined as turbidity that could be detected with the naked eye or achieving minimum OD600 of 0.1. sMIC values were defined as the lowest concentration producing no visible turbidity. […]

Another assay relates to Ecl.569 (AmpC, clinical). The assay is described as follows: Standard BLI potentiation MIC assay. It counts as cell-based, Enterobacter spp. The settings on record: Enterobacter, read-out: MIC of β-lactam with BLI. Here is the method:
The experimental protocol was performed according to Clinical and Laboratory Standards Institute (CLSI) guidelines with modifications as described below (CLSI guidelines can be derived from the CLSI document M07-A9 published in January 2012: “Methods for Dilution Antimicrobial Susceptibility Tests for Bacteria That Grow Aerobically; Approved Standard-Ninth Edition”).
To prepare for MIC testing, frozen glycerol stocks of clinical isolates (Klebsiella pneumoniae, Eschericia coli, Enterobacter spp, Citrobacter spp, or Pseudomonas aeruginosa) were used to streak for isolated colonies on rich, non-selective, tryptic soy agar containing 5% sheep's blood (TSAB). Frozen glycerol stocks of laboratory engineered, isogenic E. coli strains, which contain cloned β-lactamase expressing plasmids were used to streak for isolated colonies on rich, selective LB agar supplemented with 25 μg/mL tetracycline to maintain the plasmid. All strains were incubated at 37° C. for 18-24 hrs. […]
Plates were incubated for 18-20 hours at 37° C. with aeration (200 rpm). Following incubation, growth was confirmed visually placing plates over a viewing apparatus (stand with a mirror underneath) and then OD600 was measured using a SpectraMax 340PC384 plate reader (Molecular Devices, Sunnyvale, Calif.). Growth was defined as turbidity that could be detected with the naked eye or achieving minimum OD600 of 0.1. […]

The subject of another assay is Pae clinical, KPC-2. Description: Synergy MIC (sMIC) assay. It counts as cell-based, Pseudomonas aeruginosa. Conditions: KPC-2, clinical Pae; CXA-101 at 4 μg/mL. Here is the method:
as §1, §2

In another assay the test system is Kpn clinical, KPC-2. The assay is described as follows: Synergy MIC (sMIC) assay. Type of assay: cell-based, Klebsiella pneumoniae. The settings on record: KPC-2, clinical Kpn; CXA-101 at 4 μg/mL. As for the experimental part:
as §1, §2

By MIC is commonly meant the lowest concentration found to suppress growth. Take `O=C1N2C[C@@H](CC[C@H]2c2nnco2)N1OS(=O)(=O)[O-].[Na+]` [Hydrate 1, sodium (2S,5R)-2-(1,3,4-oxadiazol-2-yl)-7-oxo-1,6-diazabicyclo[3.2.1]octan-6-yl sulfate]: the sMIC entry in assay [1] is “F (F = ≧128 μg/mL)”; in the assay on Pae clinical, KPC-2, “C (C = 4-8 μg/mL)”; with Kpn clinical, KPC-2, “C (C = 4-8 μg/mL)”. Besides, in the assay on Ecl.569 (AmpC, clinical), the minimum inhibitory concentration (MIC) lay in the range of 0.25 to 0.5 µg/mL.
